This is an account of results in patent US20250092016A1, “COMPOUNDS AND COMPOSITIONS FOR THE TREATMENT OF CORONAVIRAL RELATED DISEASES” (priority 2021, published 2025).

The target in this experiment is SARS-CoV-2 main protease (M^pro) (Severe acute respiratory syndrome coronavirus 2, UniProt P0DTD1). The experiment is described as follows: Rapid-Fire MS Biochemical Assay measuring Mpro activity (5 nM Mpro). Conditions: Table 1B, Mpro inhibition, 5 μM substrate peptide, 120 min, read-out: Rapid-Fire Assay IC50.
With `C[C@]1(C#N)CN(c2cccc(Cl)c2)C(=O)N1c1cncc2ccccc12` (single isomer, unassigned) [Compound 40a], the 50% inhibitory concentration (IC50) lay in the range of 200 to 1000 nM.

For the compound `COc1cnc(C(F)(F)F)cc1N1C[C@@H](C#N)N(c2cncc3ccccc23)C1=O` (single isomer, unassigned) [Compound 14b], the IC50 is more than 1000 nM.

As to `N#C[C@H]1CN(c2cc(F)ccc2F)C(=O)N1c1cncc2ccccc12` (single isomer, unassigned) [Compound 109a], the concentration for half-maximal inhibition (IC50) is less than 20 nM.

Turning to `Cc1cc(N2C[C@@H](C#N)N(c3cncc4ccccc34)C2=O)ccn1` (single isomer, unassigned) [Compound 44b], the IC50 was more than 1000 nM.

Take `COc1cc(N2C[C@@H](C#N)N(c3cncc4ccccc34)C2=O)ccn1` (single isomer, unassigned) [Compound 23b]: the IC50 was more than 1000 nM.

With `CS(=O)(=O)c1ccc2cncc(N3C(=O)N(c4cccc(Cl)c4)C[C@H]3C#N)c2c1` (single isomer, unassigned) [Compound 37b], the IC50 is more than 1000 nM.

`N#Cc1cc(Cl)ccc1N1C[C@@H](C#N)N(c2cncc3ccccc23)C1=O` (single isomer, unassigned) [Compound 60b]: the IC50 lay in the range of 200 to 1000 nM.

Consider `CS(=O)(=O)c1cccc(N2C[C@H](C#N)N(c3cncc4ccccc34)C2=O)c1` (single isomer, unassigned) [Compound 48a], for which the IC50 is less than 20 nM.

With `N#C[C@@H]1CN(c2ccc(C(F)F)cn2)C(=O)N1c1cncc2ccccc12` (single isomer, unassigned) [Compound 78b], the IC50 is more than 1000 nM.

For the compound `Cn1cc(N2C[C@@H](C#N)N(c3cncc4ccccc34)C2=O)cn1` (single isomer, unassigned) [Compound 65b], the IC50 is more than 1000 nM.

For `N#C[C@H]1CN(c2ccc(F)c(F)c2)C(=O)N1c1cncc2ccccc12` (single isomer, unassigned) [Compound 72a], the half-inhibitory concentration (IC50) was less than 20 nM.

Take `Cc1c[nH]c(N2C[C@H](C#N)N(c3cncc4ccccc34)C2=O)n1` (single isomer, unassigned) [Compound 118a]: the concentration for half-maximal inhibition (IC50) was in the range of 200 to 1000 nM.

On to `N#C[C@H]1CN(c2ncc(C(F)(F)F)cn2)C(=O)N1c1cncc2ccccc12` (single isomer, unassigned) [Compound 42a], for which the concentration for half-maximal inhibition (IC50) was less than 20 nM.

On to `N#C[C@H]1CN(c2cc(Cl)cnn2)C(=O)N1c1cncc2ccccc12` (single isomer, unassigned) [Compound 54a], for which the half-maximal inhibitory concentration (IC50) lay within 20 to 200 nM.

Take `Cc1ncc(C(F)(F)F)cc1N1C[C@@H](C#N)N(c2cncc3ccccc23)C1=O` (single isomer, unassigned) [Compound 88b]: the concentration for half-maximal inhibition (IC50) is more than 1000 nM.

For the compound `C[C@H]1[C@@H](C#N)N(c2cncc3ccccc23)C(=O)N1c1cccc(Cl)c1` (single isomer, unassigned) [Compound 43b], the 50% inhibitory concentration (IC50) fell in the range of 200 to 1000 nM.

Regarding `N#CC1CN(C2CCC(F)CC2)C(=O)N1c1cncc2ccccc12` (single isomer, unassigned) [Compound 121a], the IC50 was less than 20 nM.

For the compound `N#C[C@H]1CN(c2ccnc(C(F)(F)F)c2)C(=O)N1c1cncc2ccccc12` (single isomer, unassigned) [Compound 57a], the half-inhibitory concentration (IC50) is less than 20 nM.

Turning to `Cc1ncc(C(F)(F)F)cc1N1C[C@H](C#N)N(c2cncc3ccccc23)C1=O` (single isomer, unassigned) [Compound 88a], the IC50 was less than 20 nM.

For `N#C[C@H]1CN(C2CCC(F)(F)C2)C(=O)N1c1cncc2ccccc12` (single isomer, unassigned) [Compound 141a, (R)-1-((S)-3,3-difluorocyclopentyl)-3-(isoquinolin-4-yl)-2-oxoimidazolidine-4-carbonitrile or (R)-1-((R)-3,3-difluorocyclopentyl)-3-(isoquinolin-4-yl)-2-oxoimidazolidine-4-carbonitrile], the IC50 lay within 20 to 200 nM.

In the case of `N#C[C@@H]1CN(c2cc(OC(F)F)ccc2F)C(=O)N1c1cncc2ccccc12` (single isomer, unassigned) [Compound 59b], the concentration for half-maximal inhibition (IC50) was more than 1000 nM.

For `CS(=O)(=O)N1CC(N2C[C@@H](C#N)N(c3cncc4ccccc34)C2=O)C1` (single isomer, unassigned) [Compound 130b], the IC50 was more than 1000 nM.

In the case of `Cn1ccc(N2C[C@@H](C#N)N(c3cncc4ccccc34)C2=O)cc1=O` (single isomer, unassigned) [Compound 67b], the IC50 is more than 1000 nM.

With `Cc1ccc(C(F)(F)F)cc1N1C[C@@H](C#N)N(c2cncc3ccccc23)C1=O` (single isomer, unassigned) [Compound 24b], the IC50 is more than 1000 nM.

Consider `CC(C)(O)c1ccc2cncc(N3C(=O)N(c4cccc(Cl)c4)CC3C#N)c2c1` (stereo not drawn) [Compound 34, 1-(3-chlorophenyl)-3-(6-(2-hydroxypropan-2-yl)isoquinolin-4-yl)-2-oxoimidazolidine-4-carbonitrile], for which the half-maximal inhibitory concentration (IC50) is less than 20 nM.

As to `Cc1ccc(OC(F)F)cc1N1C[C@@H](C#N)N(c2cncc3ccccc23)C1=O` (single isomer, unassigned) [Compound 101b], the IC50 was more than 1000 nM.

For the compound `CS(=O)(=O)c1ccc2cncc(N3C(=O)N(c4cccc(Cl)c4)CC3C#N)c2c1` (racemic) [Compound 37, 1-(3-chlorophenyl)-3-(6-(methylsulfonyl)isoquinolin-4-yl)-2-oxoimidazolidine-4-carbonitrile], the half-inhibitory concentration (IC50) was less than 20 nM.

Regarding `CS(=O)(=O)c1cccc(N2C[C@@H](C#N)N(c3cncc4ccccc34)C2=O)c1` (single isomer, unassigned) [Compound 48b], the IC50 was more than 1000 nM.

As to `N#C[C@H]1CN(c2ccc(C(F)(F)F)cn2)C(=O)N1c1cncc2ccccc12` (single isomer, unassigned) [Compound 97a], the IC50 is less than 20 nM.

Regarding `N#CC1CN(C2CC(O)(C(F)(F)F)C2)C(=O)N1c1cncc2ccccc12` (racemic) [Compound 28, 1-(3-hydroxy-3-(trifluoromethyl)cyclobutyl)-3-(isoquinolin-4-yl)-2-oxoimidazolidine-4-carbonitrile], the IC50 was 20 to 200 nM.

Turning to `N#Cc1ccc2cncc(N3C(=O)N(c4cccc(Cl)c4)C[C@@H]3C#N)c2c1` (single isomer, unassigned) [Compound 39a], the IC50 was less than 20 nM.

Turning to `N#C[C@H]1CN(C23CC(C(F)(F)F)(C2)C3)C(=O)N1c1cncc2ccccc12` (single isomer, unassigned) [Compound 137a], the IC50 was less than 20 nM.

For `CC(=O)N1CC(N2C[C@H](C#N)N(c3cncc4ccccc34)C2=O)C1` (single isomer, unassigned) [Compound 134a], the IC50 fell in the range of 200 to 1000 nM.

As for `COc1ccc(C#N)cc1N1CC(C#N)N(c2cncc3ccccc23)C1=O` (racemic) [Compound 15, 1-(5-cyano-2-methoxyphenyl)-3-(isoquinolin-4-yl)-2-oxoimidazolidine-4-carbonitrile], the 50% inhibitory concentration (IC50) is less than 20 nM.

In the case of `N#C[C@H]1CN(c2cccc(C(F)(F)F)c2)C(=O)N1c1cncc2ccccc12` (single isomer, unassigned) [Compound 106a], the IC50 was less than 20 nM.

Turning to `N#C[C@H]1CN(C2CC(C(F)(F)F)C2)C(=O)N1c1cncc2ccccc12` (mixture of isomers) [Compound 45, (R)-3-(isoquinolin-4-yl)-2-oxo-1-(3-(trifluoromethyl)cyclobutyl)imidazolidine-4-carbonitrile], the IC50 was more than 1000 nM.

In general, IC50 refers to the concentration that inhibits the measured activity by half.
